The NIST ThermoML archive (doi:10.1016/j.fluid.2015.03.048)
± gives the expanded uncertainty stated by the source.

What was measured:
[1] = Liquid; for viscosity: 100 kPa, Capillary tube (Ostwald / Ubbelohde) method; for mass density: 101.33 kPa, Pycnometric method
[2] = xn = mol fraction of the nth substance listed; conditions: 303.15 K, 100 kPa, Liquid; for viscosity: Capillary tube (Ostwald / Ubbelohde) method; for excess molar volume: Direct dilatometry; for speed of sound: Frequency=3 MHz, Sing-around technique in a fixed-path interferometer; for mass density: Pycnometric method

## Cc1ccccc1Cl [2-chlorotoluene]
[1]; 303.15 K
  viscosity: 0.884 ± 0.012 mPa·s
  mass density: 1072.82 ± 11 kg/m3

## CC(=O)N(C)C [N,N-dimethylethanamide]
[1]; 303.15 K
  viscosity: 0.865 ± 0.012 mPa·s
  mass density: 941.35 ± 9.4 kg/m3

## Clc1ccccc1Cl [1,2-dichlorobenzene]
[1]; 303.15 K
  viscosity: 1.301 ± 0.014 mPa·s
  mass density: 1299.2 ± 13 kg/m3

## Clc1cccc(Cl)c1 [1,3-dichlorobenzene]
[1]; 303.15 K
  viscosity: 1.023 ± 0.013 mPa·s
  mass density: 1277.16 ± 13 kg/m3

## Cc1ccc(Cl)cc1 [4-chlorotoluene]
[1]; 298.15 K
  mass density: 1065.14 ± 11 kg/m3
[1]; 303.15 K
  viscosity: 0.902 ± 0.012 mPa·s

## Cc1ccccc1[N+](=O)[O-] [2-nitrotoluene]
[1]; 303.15 K
  viscosity: 1.908 ± 0.017 mPa·s
  mass density: 1153.24 ± 12 kg/m3

## Clc1ccc(Cl)c(Cl)c1 [1,2,4-trichlorobenzene] + CC(=O)N(C)C
[2]; x2 = 0.0921
  viscosity: 1.608 ± 0.019 mPa·s
  excess molar volume: 2.1e-08 ± 6e-09 m3/mol
[2]; x2 = 0.1341
  viscosity: 1.578 ± 0.019 mPa·s
  excess molar volume: 3.1e-08 ± 6e-09 m3/mol
[2]; x2 = 0.1815
  viscosity: 1.523 ± 0.018 mPa·s
  excess molar volume: 4.3e-08 ± 6e-09 m3/mol
[2]; x2 = 0.2241
  viscosity: 1.474 ± 0.018 mPa·s
  excess molar volume: 5.2e-08 ± 6e-09 m3/mol
[2]; x2 = 0.265
  viscosity: 1.445 ± 0.018 mPa·s
  excess molar volume: 6.1e-08 ± 6e-09 m3/mol
[2]; x2 = 0.3225
  viscosity: 1.403 ± 0.017 mPa·s
  excess molar volume: 7.4e-08 ± 6e-09 m3/mol
[2]; x2 = 0.4315
  viscosity: 1.383 ± 0.017 mPa·s
  excess molar volume: 9.5e-08 ± 6e-09 m3/mol
[2]; x2 = 0.476
  viscosity: 1.353 ± 0.017 mPa·s
  excess molar volume: 9.9e-08 ± 6e-09 m3/mol
[2]; x2 = 0.501
  viscosity: 1.284 ± 0.016 mPa·s
  excess molar volume: 1e-07 ± 6e-09 m3/mol
[2]; x2 = 0.5542
  viscosity: 1.292 ± 0.016 mPa·s
  excess molar volume: 9.7e-08 ± 6e-09 m3/mol
[2]; x2 = 0.6271
  viscosity: 1.205 ± 0.015 mPa·s
  excess molar volume: 8.8e-08 ± 6e-09 m3/mol
[2]; x2 = 0.705
  viscosity: 1.197 ± 0.015 mPa·s
  excess molar volume: 7.3e-08 ± 6e-09 m3/mol
[2]; x2 = 0.7892
  viscosity: 1.152 ± 0.015 mPa·s
  excess molar volume: 5.5e-08 ± 6e-09 m3/mol
[2]; x2 = 0.8041
  viscosity: 1.096 ± 0.014 mPa·s
  excess molar volume: 5.2e-08 ± 6e-09 m3/mol
[2]; x2 = 0.9282
  viscosity: 1.088 ± 0.014 mPa·s
  excess molar volume: 2.2e-08 ± 6e-09 m3/mol
[2]; x2 = 0.0697
  speed of sound: 1289 ± 3 m/s
  mass density: 1407.11 ± 14 kg/m3
[2]; x2 = 0.1026
  speed of sound: 1299 ± 3 m/s
  mass density: 1390.55 ± 14 kg/m3
[2]; x2 = 0.1407
  speed of sound: 1308 ± 3 m/s
  mass density: 1371.4 ± 14 kg/m3
[2]; x2 = 0.1758
  speed of sound: 1316 ± 3 m/s
  mass density: 1353.78 ± 14 kg/m3
[2]; x2 = 0.2103
  speed of sound: 1325 ± 3 m/s
  mass density: 1336.46 ± 13 kg/m3
[2]; x2 = 0.2601
  speed of sound: 1336 ± 3 m/s
  mass density: 1311.41 ± 13 kg/m3
[2]; x2 = 0.3592
  speed of sound: 1354 ± 3 m/s
  mass density: 1261.63 ± 13 kg/m3
[2]; x2 = 0.4015
  speed of sound: 1365 ± 3 m/s
  mass density: 1240.42 ± 12 kg/m3
[2]; x2 = 0.4257
  speed of sound: 1368 ± 3 m/s
  mass density: 1228.27 ± 12 kg/m3
[2]; x2 = 0.4786
  speed of sound: 1378 ± 3 m/s
  mass density: 1201.84 ± 12 kg/m3
[2]; x2 = 0.5539
  speed of sound: 1391 ± 3 m/s
  mass density: 1164.24 ± 12 kg/m3
[2]; x2 = 0.6383
  speed of sound: 1405 ± 3 m/s
  mass density: 1122.13 ± 11 kg/m3
[2]; x2 = 0.7344
  speed of sound: 1419 ± 3 m/s
  mass density: 1074.16 ± 11 kg/m3
[2]; x2 = 0.7519
  speed of sound: 1420 ± 3 m/s
  mass density: 1065.39 ± 11 kg/m3
[2]; x2 = 0.9052
  speed of sound: 1440 ± 3 m/s
  mass density: 988.77 ± 9.9 kg/m3
